“Also recorded” adds a separate entry of the source. Read-outs that look alike come from different tables or passages of the source.
How the values were obtained:
GCP-II [1] = conditions: GCP-II inhibition, cited from earlier work
[2] = non-human primates; halted development; no reference given; cited from earlier work
[3] = Single time point (1 h) brain concentrations after i.n. administration in rats; type: in vivo; conditions: rat, 30 mg/kg i.n., 1 h post dose; for concentration at 1 h: male, Wistar, other: intranasal (i.n.)
[4] = following systemic administration; ref [45]; cited from earlier work
[5] = Plasma and CSF exposure after i.n. administration in non-human primate; type: in vivo; conditions: male cynomolgus monkey, 30 min post dose
Procedure: Total dose delivered was 100 mg.
Standard curves were generated in blank artificial CSF. […] Samples were analysed on agilent QTOF mass spectrometer by LC/MS.

[6] = Pharmacokinetics of 2-PMPA after i.n. administration in rats; type: in vivo; conditions: rat
GCP-II [7] = target: T1, GCP-II (Rattus norvegicus, UniProt P70627); experiment: Ex vivo GCP-II enzymatic (NAAG hydrolyzing) activity in brain tissue after i.n. administration; conditions: for inhibition at 30 mg/kg: inhaled or nasal, 30 mg/kg i.n., 1 h post dose, relative to untreated control rats
T1 construct: from tissue; host or cells: rat brain (olfactory bulb, cortex, cerebellum), sonicated homogenate supernatant
Procedure: One half of the brain tissues collected following i.n. administration (1h post dose) was used to determine GCP-II NAAG hydrolyzing activity. In brief, tissues were weighed and immersed in 0.5 mL of ice-cold 50 mM Tris Buffer (pH 7.7 at RT). Each tissue was sonicated for 30–60 seconds using an ultrasonic cell disrupter. After a 2 minute spin at 13,000 g, supernatants were analyzed for protein content and NAAG-hydrolyzing activity measurements were performed as previously described.

[8] = Pharmacokinetics of 2-PMPA after i.p. administration in rats; type: in vivo; conditions: rat, 30 mg/kg i.p.
Procedure: For i.p. studies 2-PMPA was administered as a single i.p. dose. All dosing solutions were prepared on the day of the experiment in 50 mM HEPES buffered saline, and pH adjusted to 7.4 before injection. At various time points following drug administration (0.16, .5, 1, 3, 5 h) post dose, animals (n = 3 per time point, except 3 h n = 2 animals) were euthanized with CO2, and blood samples were collected in heparinized microtubes by cardiac puncture and tissues (olfactory bulb, frontal cortex, and cerebellum) were dissected and immediately flash frozen (-80°C). Plasma was prepared by centrifugation immediately after collection of blood samples. All samples were stored in -80°C until bioanalysis. […]
The maximum plasma concentration (Cmax) and time to Cmax (Tmax) were the observed values. The area under the plasma concentration time curve (AUC) value was calculated to the last quantifiable sample (AUClast) by use of the log-linear trapezoidal rule. The brain to plasma partition coefficients were calculated as a ratio of their AUCs (AUC0-t,brain/AUC0-t,plasma). The elimination half-life (t1/2) was determined by dividing 0.693 by λ z.

[9] = printed in Fig 1, no method or reference given in this paper, read-out: Potency (IC50)
[10] = cerebellum, read-out: Mean concentration in cerebellum
[11] = frontal cortex, read-out: Mean concentration in cortex
[12] = olfactory bulb, read-out: Mean concentration in olfactory bulb

T1 sequence (P70627 whole entry): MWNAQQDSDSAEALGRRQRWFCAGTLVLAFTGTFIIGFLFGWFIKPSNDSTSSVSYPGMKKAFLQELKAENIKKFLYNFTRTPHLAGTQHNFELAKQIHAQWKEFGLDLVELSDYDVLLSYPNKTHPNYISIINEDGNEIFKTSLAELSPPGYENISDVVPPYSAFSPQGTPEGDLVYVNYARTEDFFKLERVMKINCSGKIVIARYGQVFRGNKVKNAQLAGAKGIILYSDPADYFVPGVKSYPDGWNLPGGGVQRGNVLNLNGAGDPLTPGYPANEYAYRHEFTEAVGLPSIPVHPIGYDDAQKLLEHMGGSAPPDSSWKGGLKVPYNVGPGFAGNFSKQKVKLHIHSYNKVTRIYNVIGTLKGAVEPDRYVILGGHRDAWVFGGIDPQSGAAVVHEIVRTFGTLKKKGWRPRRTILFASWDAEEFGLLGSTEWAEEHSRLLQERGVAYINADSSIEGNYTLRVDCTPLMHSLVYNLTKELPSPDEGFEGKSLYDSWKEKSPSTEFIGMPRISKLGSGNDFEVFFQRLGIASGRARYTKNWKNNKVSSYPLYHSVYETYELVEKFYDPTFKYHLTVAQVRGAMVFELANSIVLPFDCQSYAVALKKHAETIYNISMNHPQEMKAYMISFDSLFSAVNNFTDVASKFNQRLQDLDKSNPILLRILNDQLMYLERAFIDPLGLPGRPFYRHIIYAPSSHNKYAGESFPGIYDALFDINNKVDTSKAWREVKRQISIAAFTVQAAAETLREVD

O=C(O)CCC(CCCS)C(=O)O (stereo not drawn) [2-MPPA, 2-(3-mercaptopropyl)pentane-dioic acid]
IC50 (GCP-II [1]; [9]): 90 nM
Toxicity observed in primate studies [2]: membranoproliferative glomerular nephritis; also recorded: immunological toxicities
concentration at 1 h [3, 10]: 210 ng/g
concentration at 1 h [3, 11]: 260 ng/g
concentration at 1 h [3, 12]: 4460 ng/g

O=C(O)CCC(CP(=O)(O)O)C(=O)O (stereo not drawn) [2-PMPA, 2-(phosphonomethyl)-pentanedioic acid]
Brain to plasma ratio [4]: ≤ 2%
Plasma level ([5]; total dose 100 mg i.n., below the limit of quantitation): < 0.05 µM
Cmax ([6]; male, Wistar, other: intranasal (i.n.), 30 mg/kg i.n., plasma): 24.7 µg/mL
AUC(0-t) ([6]; male, Wistar, plasma, other: intranasal (i.n.), 30 mg/kg i.n., read-out: AUC0-t plasma): 52.3 µg·h/mL
AUC0-t cerebellum ([6]; 30 mg/kg i.n.): 5.27 µg·h/g
AUC0-t cortex ([6]; 30 mg/kg i.n.): 37.7 µg·h/g
AUC0-t olfactory bulb ([6]; 30 mg/kg i.n.): 78.1 µg·h/g
Brain tissue to plasma ratio (AUC0-t,brain/AUC0-t,plasma), cerebellum ([6]; 30 mg/kg i.n.): 0.10
Brain tissue to plasma ratio (AUC0-t,brain/AUC0-t,plasma), cortex ([6]; 30 mg/kg i.n.): 0.71
Brain tissue to plasma ratio (AUC0-t,brain/AUC0-t,plasma), olfactory bulb ([6]; 30 mg/kg i.n.): 1.49
Share of 2-PMPA reaching the brain accounted from the plasma ([6]; i.n., pooled plasma and brain data of i.p. and i.n. routes): 2%
Inhibition of brain GCP-II enzymatic activity ex-vivo (in words) (GCP-II [7]; i.n. administration): complete inhibition
inhibition at 30 mg/kg (GCP-II [7]; read-out: Inhibition of GCP-II activity, cerebellum): 70%
inhibition at 30 mg/kg (GCP-II [7]; read-out: Inhibition of GCP-II activity, cortex): 100%
inhibition at 30 mg/kg (GCP-II [7]; read-out: Inhibition of GCP-II activity, olfactory bulb): 100%
Mean concentration in cerebellum [3]: 2.13 µg/g
Mean concentration in cortex [3]: 10.3 µg/g
Mean concentration in olfactory bulb [3]: 31.2 µg/g
Kp ([8]; male, Wistar, cerebellum, ip, read-out: Brain tissue to plasma ratio (AUC0-t,brain/AUC0-t,plasma), cerebellum): < 0.02
Kp ([8]; male, Wistar, frontal cortex, ip, read-out: Brain tissue to plasma ratio (AUC0-t,brain/AUC0-t,plasma), cortex): < 0.02
half-life ([8]; male, Wistar, ip, plasma, read-out: Elimination t1/2 (converted)): 59.4 min
Cmax ([8]; male, Wistar, ip, plasma, read-out: Peak plasma concentration (Cmax)): 49.5 µg/mL
AUC(0-t) ([8]; male, Wistar, plasma, ip, read-out: AUC0-t plasma): 50.3 µg·h/mL
CL/F ([8]; male, Wistar, plasma, ip, read-out: Apparent clearance): 0.583 L/h/kg
AUC0-t cerebellum [8]: 0.80 µg·h/g
AUC0-t cortex [8]: 0.84 µg·h/g
AUC0-t olfactory bulb [8]: 1.15 µg·h/g
Apparent volume of distribution [8]: 0.82 L/kg

O=C(O)CC[C@H](NC(=O)N[C@@H](CS)C(=O)O)C(=O)O [DCMC, N-[N-[(S)-1,3-dicarboxypropyl]carbamoyl]-L-cysteine, reference compound]
IC50 (GCP-II [1]; [9]): 3.1 nM
concentration at 1 h [3, 10]: 200 ng/g
concentration at 1 h [3, 11]: 2030 ng/g
concentration at 1 h [3, 12]: 2120 ng/g
